The target of this data set is T1, Solute carrier family 22 member 6 (Rattus norvegicus, UniProt O35956).
T1 sequence (O35956 whole entry): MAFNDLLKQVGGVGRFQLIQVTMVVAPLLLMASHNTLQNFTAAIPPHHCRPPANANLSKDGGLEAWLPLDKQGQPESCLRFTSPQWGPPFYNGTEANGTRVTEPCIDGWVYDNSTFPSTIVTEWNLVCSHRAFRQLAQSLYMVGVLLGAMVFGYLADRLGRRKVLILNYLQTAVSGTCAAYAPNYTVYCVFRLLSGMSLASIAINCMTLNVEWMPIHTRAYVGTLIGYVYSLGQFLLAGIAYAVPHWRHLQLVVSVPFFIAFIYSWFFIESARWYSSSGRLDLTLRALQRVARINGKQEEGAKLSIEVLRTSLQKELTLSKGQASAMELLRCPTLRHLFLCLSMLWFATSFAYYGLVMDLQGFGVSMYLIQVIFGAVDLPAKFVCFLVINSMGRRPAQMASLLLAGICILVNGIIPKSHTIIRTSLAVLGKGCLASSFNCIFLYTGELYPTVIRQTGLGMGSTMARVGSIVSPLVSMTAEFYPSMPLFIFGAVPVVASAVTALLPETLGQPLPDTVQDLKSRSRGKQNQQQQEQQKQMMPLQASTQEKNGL
In words: TP_TRANSPORTER: inhibition of PAH uptake (PAH: 10 uM, Corticosterone: 500 uM) in Xenopus laevis oocytes. The class given is functional, cell-based. Particulars: oocyte.

For the molecule `C[C@]12C[C@H](O)[C@H]3[C@@H](CCC4=CC(=O)CC[C@@]43C)[C@@H]1CC[C@@H]2C(=O)CO` [CORTICOSTERONE], the Activity result was “inhibitor [(at a rough estimate) 25 % of control]”.

The record behind these values is ChEMBL document CHEMBL2074226, “Molecular evidence of organic ion transporters in the rat adrenal cortex with adrenocorticotropin-regulated zonal expression” (Endocrinology, 2003).
